Results on 27 compounds are retold here after patent publication US5135955A, “Propanamine derivatives” (Eli Lilly and Company, priority 1989, dated 1992).

One assay relates to Aspergillus flavus M152. Nature of the assay: in vitro antifungal activity, Aspergillus flavus (MIC). The settings on record: 35° C., 48 hours, RPMI 1640 plus 10% fetal calf serum, 95-100% inhibition of growth; for MIC: read-out: minimum inhibitory concentration (MIC), A.f. The format is cell-based. The protocol:
(§1) The antifungal activity was assayed in vitro against Candida abicans A26, Trichophyton mentagrophytes CDC27, and Aspergillus flavus M152. The inocula, previously frozen under liquid nitrogen in a lactose, glycerol and water solution, were standardized by counting spores with a hemocytometer. Final concentrations (C. albicans, 1×10^5 cells/m; T. mentagrophytes, 1×10^6 cells/ml; A. flavus, 1×10^5 cells/ml) in RPMI 1640 plus 10% fetal calf serum were added to each of the 96 wells of a microtiter plate (100 μl/well).The compounds to be tested were solubilized in either water or ethanol and added to the microtiter wells in serial dilutions to give final concentrations in the range 0.039-20 μg/ml. The plates were incubated at 35° C. for 48 hours. The minimum inhibitory concentration (MIC) values were determined as the highest dilution showing 95-100% inhibition of growth.
(§2) ^a Minimum inhibitory concentration expressed in μg/ml
^c A.f. means Aspergillus flavus M152

For assay [1], the system named is Trichophyton mentagrophytes CDC27. Nature of the assay: in vitro antifungal activity, Trichophyton mentagrophytes (MIC). The format is cell-based. As to conditions: 35° C., 48 hours, RPMI 1640 plus 10% fetal calf serum, 95-100% inhibition of growth; for MIC: read-out: minimum inhibitory concentration (MIC), T.m. The protocol:
as §1, §2
^d T.m. means Trichophyton mentagrophytes CDC27

The subject of a further assay is Candida albicans A26. As to the kind of experiment: in vitro antifungal activity, Candida albicans (MIC). The class given is cell-based. The settings on record: 35° C., 48 hours, RPMI 1640 plus 10% fetal calf serum, 95-100% inhibition of growth; for MIC: read-out: minimum inhibitory concentration (MIC), C.a. The protocol:
as §1, §2
^b C.a. means Candida albicans A26

For assay [2], the system named is thromboplastin clotting time in human plasma. As to the kind of experiment: prothrombin time test (thromboplastin clotting time in human plasma). The settings on record: for plasma prothrombin time: 37° C., human plasma. The class given is biochemical. The protocol: Briefly, to 0.1 ml of each of human plasma, normal saline and thromboplastin was added 0.03 ml of the test compound of the present invention (2 mg/ml in 50 percent methanol). The clotting time was measured at 37° C. with a Fibrometer.
^a Expressed in seconds
^b Concentration of compound tested in micrograms per milliliter of […]

Setting [3] is: 45 micrograms per milliliter of plasma.
The mark [4] stands for this setting: 90 micrograms per milliliter of plasma.
[5] abbreviates: 180 micrograms per milliliter of plasma.

Where a name gives a salt, the structure may show the parent alone. Some results are limits rather than exact numbers.

Consider `COc1ccc(CC(c2ccccc2)C(C)N)cc1OCC1CCCCC1` (stereo not drawn) [Example 71, 3-(Cyclohexylmethoxy)-4-methoxy-α-methyl-β-phenylbenzenepropanamine hydrochloride], for which the MIC worked out at 10 µg/mL in the assay with Aspergillus flavus M152, 10 µg/mL in assay [1] and 20 µg/mL in the assay on Candida albicans A26.
As for `CC(CCc1ccc(OCCC2CCCCC2)cc1)NCCN(C)C` (centres unmarked) [Example 46, N'-[3-[4-(2-Cyclohexylethoxy)phenyl]-1-methylpropyl]-N,N-dimethyl-1,2-ethanediamine dihydrochloride], the values for the MIC (in the assay with Aspergillus flavus M152; in assay [1]; in the assay with Candida albicans A26) were 20 µg/mL, 10 µg/mL and 10 µg/mL, respectively.
Consider `CC(CCc1ccc(OCC(=O)C(C)(C)C)cc1)N(C)C` (centres unmarked) [Example 60, 3,3-Dimethyl-1-[4-[3-(dimethylamino)-1-butyl]phenoxy]-2-butenone hydrochloride], for which the results for the MIC (with Aspergillus flavus M152; in assay [1]; in the assay with Candida albicans A26) were 10 µg/mL, 0.625 µg/mL and 10 µg/mL, respectively.
For the compound `CC(CCc1ccc(OCc2ccccc2)cc1)N(C)C` (stereo not drawn) [Example 84, N,N,α-Trimethyl-4-(phenylmethoxy)benzene propanamine hydrochloride], the MIC came to 10 µg/mL in the assay on Aspergillus flavus M152, 0.312 µg/mL in assay [1] and 0.156 µg/mL in the assay on Candida albicans A26.
On the same counts, the results for `CC(CCc1ccc(OCCN(C)C)cc1)N(C)C` (stereo not drawn) [Example 58, 4-[2-(Dimethylamino)ethoxy]-N,N,α-trimethylbenzenepropylamine dihydrochloride] are 20 µg/mL, 10 µg/mL and 1.25 µg/mL.
`CC(CCc1ccc(OCc2ccc(Cl)cc2Cl)cc1)N(C)C` (stereo not drawn) [Example 64, N,N,α-Trimethyl-4-(2,4-dichlorophenyl)methoxy]benzenepropanamine hydrochloride]: the values for the MIC (in the assay on Aspergillus flavus M152; in assay [1]; in the assay with Candida albicans A26) were 5 µg/mL, 5 µg/mL and 20 µg/mL, respectively.
As to `CC(CCc1ccc(OCCCC#N)cc1)N(C)C` (centres unmarked) [Example 59, 4-8 4-[3-(Dimethylamino)butyl]phenoxy]butanenitrile hydrochloride], the MIC stood at 20 µg/mL in the assay on Aspergillus flavus M152, 20 µg/mL in assay [1] and 2.5 µg/mL with Candida albicans A26.
In the case of `CC(CCc1ccc(OCCn2cncn2)cc1)N(C)C` (stereo not drawn) [Example 62, N,N,α-Trimethyl-4-[2-(1H-1,2,4-triazol-1-yl)ethoxy]benzenepropanamine], the figures for the MIC (in the assay with Aspergillus flavus M152; in assay [1]; with Candida albicans A26) were 20 µg/mL, 10 µg/mL and 10 µg/mL, respectively.
As to `CCCCOc1ccc(CCC(C)N(C)CC)cc1` (stereo not drawn) [Example 68, 4-Butoxy-N-ethyl-N,α-dimethylbenzenepropanamine hydrochloride], the MIC is 0.625 µg/mL with Aspergillus flavus M152, 1.25 µg/mL in assay [1] and 0.625 µg/mL in the assay on Candida albicans A26.
Take `CCCCCCOc1ccc(CC(c2ccc(OC)cc2)C(C)N)cc1` (stereo not drawn) [Example 72, 4-(Hexyloxy)-β-4-methoxyphenyl-αmethylbenzenepropanamine hydrochloride]: the values for the MIC (in the assay with Aspergillus flavus M152; in assay [1]; in the assay with Candida albicans A26) were 10 µg/mL, 5 µg/mL and 10 µg/mL, respectively.
On to “4-(2-Butenyloxy)-N,N,α-trimethylbenzenepropanamine hydrochloride [Example 56]”, for which the “minimum inhibitory concentration (MIC), A.f.” value in the assay with Aspergillus flavus M152 worked out at 5 µg/mL. In addition, the “minimum inhibitory concentration (MIC), T.m.” value in assay [1] was found to be 0.312 µg/mL. For the same compound, the “minimum inhibitory concentration (MIC), C.a.” value with Candida albicans A26 was 0.625 µg/mL.
With `CCCCOc1ccc(CCC(C)N2CC(C)OC(C)C2)cc1` (centres unmarked) [Example 69, 4-[3-(4-Butoxyphenyl)-1-methylpropyl]-2,6-dimethylmorpholine hydrochloride], the MIC in the assay with Aspergillus flavus M152 is above 20 µg/mL; in assay [1] it was 1.25 µg/mL; in the assay on Candida albicans A26, above 20 µg/mL.
For `CC(CCc1ccc(OCc2ccc(C(F)(F)F)cc2)cc1)N(C)C` (stereo not drawn) [Example 65, N,N,α-Trimethyl-4-[[4-(trifluoromethyl)phenyl]methoxy]-benzenepropanamine hydrochloride], the values for the MIC (with Aspergillus flavus M152; in assay [1]; in the assay on Candida albicans A26) were 10 µg/mL, 5 µg/mL and 20 µg/mL, respectively.
The matching figures for `CC(CCc1ccc(OCc2cccc(F)c2)cc1)N(C)C` (stereo not drawn) [Example 63, N,N,α-Trimethyl-4-[(3-fluorophenyl)methoxy]benzenepropanamine hydrochloride]: 5 µg/mL, 1.25 µg/mL and 0.625 µg/mL.
Turning to `Cl.NCC(Cc1ccc2c(c1)OCO2)c1ccc(-c2ccccc2)cc1` (stereo not drawn) [Example 32, β-[1,1'-Biphenyl]-4-yl-1,3-benzodioxole-5-propanamine hydrochloride], the values for the plasma prothrombin time in assay [2] (setting [3]), in assay [2] (setting [4]) and in assay [2] (setting [5]) were 27 s, 66 s and 222 s, respectively.
Regarding `CCCCC(CC)COc1ccc(CC(CN)c2ccccc2)cc1.Cl` (stereo not drawn) [Example 3, 4-[(2-Ethylhexyl)oxy]-β-phenylbenzenepropanamine hydrochloride], the prothrombin time in assay [2] (28 micrograms per ml) was 16 s; in assay [2] (69 micrograms per ml), 25 s; in assay [2] (139 micrograms per ml), 80 s.
`COc1ccc(C(CN)Cc2ccc(OC)c3ccccc23)cc1OC` (stereo not drawn) [Example 23, β(3,4-Dimethoxy)phenyl-1-(4-methoxy)naphthalenepropanamine hydrochloride] displayed a plasma prothrombin time in assay [2] (setting [5]) of 101 s.
As for `CCCCCOc1ccc(CC(CN)c2ccc(OC)c(OC)c2)cc1` (stereo not drawn) [Example 15, 4-(Pentyloxy)-β-3,4-(dimethoxy)phenylbenzenepropanamine], the figures for the plasma prothrombin time in assay [2] (setting [3]), in assay [2] (setting [4]) and in assay [2] (setting [5]) were 21 s, 30 s and 80 s, respectively.
Regarding `CCCCCOc1ccc(CC(CN)c2ccc(OC)c(OC)c2OC)cc1` (stereo not drawn) [Example 19, 4-(Pentyloxy)-β-(2,3,4-trimethoxy)phenylbenzenepropanamine hydrochloride], the plasma prothrombin time in assay [2] (setting [5]) turned out to be 174 s.
For the compound `CCCCCOc1ccc(CC(CN)c2ccc(-c3ccccc3)cc2)cc1.Cl` (stereo not drawn) [Example 12, β-[[4-(Pentyloxy)phenyl]methyl][1,1'-biphenyl]-4-ethanamine hydrochloride], the plasma prothrombin time in assay [2] (setting [3]) came out at 21 s; in assay [2] (setting [4]), 33 s; in assay [2] (setting [5]) it was 75 s.
The matching figures for `CCCCCCCCCCOc1ccc(CCC(C)N)cc1` (stereo not drawn) [Example 50, 4-(Decyloxy)-α-methylbenzenepropanamine hydrochloride]: 21 s, 36 s and 100 s.
`CC(CCc1ccc(C(C)(C)C)cc1)N(C)C.Cl` (stereo not drawn) [Example 83, 4-(1,1-Dimethylethyl)-N,N,α-trimethylbenzenepropanamine hydrochloride]: the results for the plasma prothrombin time in assay [2] (setting [3]), in assay [2] (setting [4]) and in assay [2] (setting [5]) were 21 s, 26 s and 37 s, respectively.
The matching figures for `CCCCCCCOc1ccc(CCC(C)N)cc1` (stereo not drawn) [Example 51, 4-(Heptyloxy)-α-methylbenzenepropanamine hydrochloride]: 25 s, 52 s and above 300 s.
The matching figures for `CC(CCc1ccc(OCC2CCCC2)cc1)N(C)C` (stereo not drawn) [Example 81, 4-Cyclopentylmethoxy-N,N-α-trimethylbenzenepropanamine]: 20 s, 25 s and 47 s.
As for `CCCCCCCOc1ccc(CCC(C)NCCN(C)C)cc1` (centres unmarked) [Example 49, N'-[3-[4-(Heptyloxy)phenyl]-1-methylpropyl]-N,N-dimethyl-1,2-ethanediamine dihydrochloride], the plasma prothrombin time in assay [2] (11 micrograms per milliliter of plasma) came to 22 s; in assay [2] (22 micrograms per milliliter of plasma), 34 s; in assay [2] (setting [3]) it was 36 s; in assay [2] (setting [4]), 167 s; in assay [2] (setting [5]), 260 s.
`CCCCCCOc1ccc(CC(CN)c2ccc3ccccc3c2)cc1.Cl` (stereo not drawn) [Example 10, β-[[4-(Hexyloxy)phenyl]methyl]-2-naphthaleneethanamine hydrochloride] registered a plasma prothrombin time in assay [2] (setting [5]) of 60 s.
For the compound `CCCCCCOc1ccc(CC(CNC)c2ccccc2)cc1` (stereo not drawn) [Example 29, N-Methyl-4-(hexyloxy)-β-phenylbenzenepropanamine], the figures for the plasma prothrombin time in assay [2] (setting [3]), in assay [2] (setting [4]) and in assay [2] (setting [5]) were 17 s, 31 s and 87 s, respectively.
